Assays:
Assay type in all cases: in vivo
[1] = system: Pigweed, Palmer (palmer amaranth, palmer pigweed, Amaranthus palmeri); assay: Test A1 postemergence, Pigweed, Palmer; details: Postemergence
Method in brief: (§1)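 Plants grown in pots of loam/sand mix; preemergence = soil-directed spray on seeded pots, postemergence = spray at 1–2 leaves, height 2–10 cm; test chemicals formulated in non-phytotoxic solvent with surfactant.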

[2] = system: horseweed (Erigeron canadensis); assay: Test A1 postemergence, horseweed; details: Postemergence
Method in brief: (§2)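 Pre: seeds in loam/sand blend, directed soil spray. Post: potted plants, same soil, 2–10 cm, 1–2 leaf stage. Chemicals in non-phytotoxic solvent + surfactant for both.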

[3] = system: corn (Zea mays); assay: Test A1 preemergence, corn
Method in brief: as §1

[4] = system: ragweed (common ragweed, Ambrosia artemisiifolia); assay: Test A1 postemergence, ragweed; details: Postemergence
Method in brief: as §1

[5] = system: blackgrass (Alopecurus myosuroides); assay: Test A1 preemergence, blackgrass
Method in brief: (§3)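 Test compounds were formulated in a non-phytotoxic solvent mixture containing a surfactant. For preemergence, seeds sown in a loam soil–sand blend received a directed soil spray. For postemergence, potted plants in the same soil, 2 to 10 cm tall at the one- to two-leaf stage, were sprayed.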

[6] = system: ragweed (common ragweed, Ambrosia artemisiifolia); assay: Test A1 preemergence, ragweed
Method in brief: as §3

[7] = system: wheat (Triticum aestivum); assay: Test A1 preemergence, wheat
Method in brief: as §3

[8] = system: goosegrass (Eleusine indica); assay: Test A1 postemergence, goosegrass; details: Postemergence
Method in brief: as §2

[9] = system: Oat, Wild (wild oat, Avena fatua); assay: Test A1 postemergence, Oat, Wild; details: Postemergence
Method in brief: as §1

[10] = system: goosegrass (Eleusine indica); assay: Test A1 preemergence, goosegrass
Method in brief: as §3

[11] = 31 g ai/ha, 0 to 100 scale (0 no effect, 100 complete control), 10 days
[12] = 31 g ai/ha, 0 to 100 scale (0 no effect, 100 complete control)
[13] = 125 g ai/ha, 0 to 100 scale, 0 no effect, 100 complete control

**Q.** Which “Plant response rating, Pigweed, Palmer” value [1, 11] does the source give for `Cc1cc(C)c(N(COC(=O)C(C)(C)C)S(=O)(=O)C(F)(F)F)cc1C1=NOC2CCCCCC12` (single isomer, unassigned) [Compound 294] here?
**A.** 10

**Q.** And the “Plant response rating, Pigweed, Palmer” value ([1]; 125 g ai/ha, 0 to 100 scale)?
**A.** 30

**Q.** And the “Plant response rating, Horseweed” value [2, 11]?
**A.** 10

**Q.** What about the “Plant response rating, Horseweed” value ([2]; 125 g ai/ha, 0 to 100 scale) of the same molecule?
**A.** 90

**Q.** And the “Plant response rating, Corn” value [3, 12]?
**A.** 0

**Q.** And the “Plant response rating, Corn” value [3, 13]?
**A.** 0

**Q.** And the “Plant response rating, Ragweed” value [4, 11]?
**A.** 30

**Q.** And the “Plant response rating, Ragweed” value ([4]; 125 g ai/ha, 0 to 100 scale)?
**A.** 80

**Q.** What about the “Plant response rating, Blackgrass” value [5, 12] of the same molecule?
**A.** 10

**Q.** And the “Plant response rating, Blackgrass” value [5, 13]?
**A.** 0

**Q.** What about the “Plant response rating, Ragweed” value [6, 12] of the same molecule?
**A.** 0

**Q.** And the “Plant response rating, Ragweed” value [6, 13]?
**A.** 30

**Q.** And the “Plant response rating, Wheat” value [7, 12]?
**A.** 0

**Q.** What about the “Plant response rating, Wheat” value [7, 13] of the same molecule?
**A.** 0

**Q.** What about the “Plant response rating, Goosegrass” value [8, 11] of the same molecule?
**A.** 0

**Q.** What about the “Plant response rating, Goosegrass” value ([8]; 125 g ai/ha, 0 to 100 scale) of the same molecule?
**A.** 30

**Q.** And the “Plant response rating, Oat, Wild” value [9, 11]?
**A.** 10

**Q.** What about the “Plant response rating, Oat, Wild” value ([9]; 125 g ai/ha, 0 to 100 scale) of the same molecule?
**A.** 20

**Q.** What about the “Plant response rating, Goosegrass” value [10, 12] of the same molecule?
**A.** 0

**Q.** What about the “Plant response rating, Goosegrass” value [10, 13] of the same molecule?
**A.** 90

**Q.** What does the source list for `Cc1cc(C)c(-n2nccc(C)c2=O)cc1NS(=O)(=O)C(F)(F)F` [Compound 281]?
**A.** Plant response rating, Pigweed, Palmer [1, 11]: 0; Plant response rating, Pigweed, Palmer ([1]; 125 g ai/ha, 0 to 100 scale): 40; Plant response rating, Horseweed [2, 11]: 100; Plant response rating, Horseweed ([2]; 125 g ai/ha, 0 to 100 scale): 70; Plant response rating, Corn [3, 12]: 0; Plant response rating, Corn [3, 13]: 0; Plant response rating, Ragweed [4, 11]: 0; Plant response rating, Ragweed ([4]; 125 g ai/ha, 0 to 100 scale): 70; Plant response rating, Blackgrass [5, 12]: 0; Plant response rating, Blackgrass [5, 13]: 0; Plant response rating, Ragweed [6, 12]: 0; Plant response rating, Ragweed [6, 13]: 0; Plant response rating, Wheat [7, 12]: 0; Plant response rating, Wheat [7, 13]: 20; Plant response rating, Goosegrass [8, 11]: 0; Plant response rating, Goosegrass ([8]; 125 g ai/ha, 0 to 100 scale): 40; Plant response rating, Oat, Wild [9, 11]: 0; Plant response rating, Oat, Wild ([9]; 125 g ai/ha, 0 to 100 scale): 0; Plant response rating, Goosegrass [10, 12]: 10; Plant response rating, Goosegrass [10, 13]: 90

**Q.** What does the source list for `COc1cnn(-c2cc(NS(=O)(=O)C(F)(F)F)c(C)cc2C)c(=O)c1OC` [Compound 282]?
**A.** Plant response rating, Pigweed, Palmer [1, 11]: 0; Plant response rating, Pigweed, Palmer ([1]; 125 g ai/ha, 0 to 100 scale): 0; Plant response rating, Horseweed [2, 11]: 50; Plant response rating, Horseweed ([2]; 125 g ai/ha, 0 to 100 scale): 80; Plant response rating, Corn [3, 12]: 0; Plant response rating, Corn [3, 13]: 50; Plant response rating, Ragweed [4, 11]: 60; Plant response rating, Ragweed ([4]; 125 g ai/ha, 0 to 100 scale): 70; Plant response rating, Blackgrass [5, 12]: 30; Plant response rating, Blackgrass [5, 13]: 60; Plant response rating, Ragweed [6, 12]: 0; Plant response rating, Ragweed [6, 13]: 20; Plant response rating, Wheat [7, 12]: 0; Plant response rating, Wheat [7, 13]: 80; Plant response rating, Goosegrass [8, 11]: 20; Plant response rating, Goosegrass ([8]; 125 g ai/ha, 0 to 100 scale): 80; Plant response rating, Oat, Wild [9, 11]: 0; Plant response rating, Oat, Wild ([9]; 125 g ai/ha, 0 to 100 scale): 50; Plant response rating, Goosegrass [10, 12]: 0; Plant response rating, Goosegrass [10, 13]: 90

**Q.** Which results are given for `CCC1ON=C(c2cc(N(COC(=O)C(C)(C)C)S(=O)(=O)C(F)(F)F)c(C)cc2C)C1CC` (stereo not drawn) [Compound 344]?
**A.** Plant response rating, Pigweed, Palmer [1, 11]: 20; Plant response rating, Pigweed, Palmer ([1]; 125 g ai/ha, 0 to 100 scale): 50; Plant response rating, Corn [3, 12]: 10; Plant response rating, Corn [3, 13]: 10; Plant response rating, Ragweed [4, 11]: 30; Plant response rating, Ragweed ([4]; 125 g ai/ha, 0 to 100 scale): 60; Plant response rating, Blackgrass [5, 12]: 0; Plant response rating, Blackgrass [5, 13]: 30; Plant response rating, Ragweed [6, 12]: 0; Plant response rating, Ragweed [6, 13]: 0; Plant response rating, Wheat [7, 12]: 0; Plant response rating, Wheat [7, 13]: 0; Plant response rating, Goosegrass [8, 11]: 0; Plant response rating, Goosegrass ([8]; 125 g ai/ha, 0 to 100 scale): 30; Plant response rating, Oat, Wild [9, 11]: 20; Plant response rating, Oat, Wild ([9]; 125 g ai/ha, 0 to 100 scale): 30; Plant response rating, Goosegrass [10, 12]: 20; Plant response rating, Goosegrass [10, 13]: 90

**Q.** Which “Plant response rating, Pigweed, Palmer” value [1, 11] does the source give for `CCC1ON=C(c2cc(N(C(=O)OCC(C)C)S(=O)(=O)C(F)(F)F)c(C)cc2C)C1CC` (stereo not drawn) [Compound 345] here?
**A.** 40

**Q.** And the “Plant response rating, Pigweed, Palmer” value ([1]; 125 g ai/ha, 0 to 100 scale)?
**A.** 60

**Q.** And the “Plant response rating, Corn” value [3, 12]?
**A.** 10

**Q.** What about the “Plant response rating, Corn” value [3, 13] of the same molecule?
**A.** 10

**Q.** What about the “Plant response rating, Ragweed” value [4, 11] of the same molecule?
**A.** 30

**Q.** And the “Plant response rating, Ragweed” value ([4]; 125 g ai/ha, 0 to 100 scale)?
**A.** 70

**Q.** And the “Plant response rating, Blackgrass” value [5, 12]?
**A.** 40

**Q.** And the “Plant response rating, Blackgrass” value [5, 13]?
**A.** 70

**Q.** What about the “Plant response rating, Ragweed” value [6, 12] of the same molecule?
**A.** 0

**Q.** And the “Plant response rating, Ragweed” value [6, 13]?
**A.** 0

**Q.** What about the “Plant response rating, Wheat” value [7, 12] of the same molecule?
**A.** 30

**Q.** What about the “Plant response rating, Wheat” value [7, 13] of the same molecule?
**A.** 10

**Q.** And the “Plant response rating, Goosegrass” value [8, 11]?
**A.** 0

**Q.** What about the “Plant response rating, Goosegrass” value ([8]; 125 g ai/ha, 0 to 100 scale) of the same molecule?
**A.** 70

**Q.** And the “Plant response rating, Oat, Wild” value [9, 11]?
**A.** 20

**Q.** And the “Plant response rating, Oat, Wild” value ([9]; 125 g ai/ha, 0 to 100 scale)?
**A.** 40

**Q.** What about the “Plant response rating, Goosegrass” value [10, 12] of the same molecule?
**A.** 30

**Q.** What about the “Plant response rating, Goosegrass” value [10, 13] of the same molecule?
**A.** 90

**Q.** What does the source list for `CCC1ON=C(c2cc(NS(=O)(=O)C(F)(F)F)c(C)cc2C)C1CC` (stereo not drawn) [Compound 346]?
**A.** Plant response rating, Pigweed, Palmer [1, 11]: 20; Plant response rating, Pigweed, Palmer ([1]; 125 g ai/ha, 0 to 100 scale): 50; Plant response rating, Corn [3, 12]: 10; Plant response rating, Corn [3, 13]: 20; Plant response rating, Ragweed [4, 11]: 50; Plant response rating, Ragweed ([4]; 125 g ai/ha, 0 to 100 scale): 70; Plant response rating, Blackgrass [5, 12]: 80; Plant response rating, Blackgrass [5, 13]: 90; Plant response rating, Ragweed [6, 12]: 0; Plant response rating, Ragweed [6, 13]: 10; Plant response rating, Wheat [7, 12]: 20; Plant response rating, Wheat [7, 13]: 70; Plant response rating, Goosegrass [8, 11]: 40; Plant response rating, Goosegrass ([8]; 125 g ai/ha, 0 to 100 scale): 90; Plant response rating, Oat, Wild [9, 11]: 20; Plant response rating, Oat, Wild ([9]; 125 g ai/ha, 0 to 100 scale): 40; Plant response rating, Goosegrass [10, 12]: 90; Plant response rating, Goosegrass [10, 13]: 100

**Q.** Which results are given for `CCC1ON=C(c2cc(N(COC(=O)C(C)(C)C)S(=O)(=O)C(F)(F)F)c(C)cc2C)C1CC` (stereo not drawn) [Compound 347]?
**A.** Plant response rating, Pigweed, Palmer [1, 11]: 20; Plant response rating, Pigweed, Palmer ([1]; 125 g ai/ha, 0 to 100 scale): 50; Plant response rating, Corn [3, 12]: 0; Plant response rating, Corn [3, 13]: 0; Plant response rating, Ragweed [4, 11]: 40; Plant response rating, Ragweed ([4]; 125 g ai/ha, 0 to 100 scale): 70; Plant response rating, Blackgrass [5, 12]: 10; Plant response rating, Blackgrass [5, 13]: 30; Plant response rating, Ragweed [6, 12]: 0; Plant response rating, Ragweed [6, 13]: 0; Plant response rating, Wheat [7, 12]: 0; Plant response rating, Wheat [7, 13]: 20; Plant response rating, Goosegrass [8, 11]: 0; Plant response rating, Goosegrass ([8]; 125 g ai/ha, 0 to 100 scale): 40; Plant response rating, Oat, Wild [9, 11]: 10; Plant response rating, Oat, Wild ([9]; 125 g ai/ha, 0 to 100 scale): 20; Plant response rating, Goosegrass [10, 12]: 10; Plant response rating, Goosegrass [10, 13]: 60

**Q.** Which results are given for `CCC1ON=C(c2cc(N(C(=O)OCC(C)C)S(=O)(=O)C(F)(F)F)c(C)cc2C)C1CC` (stereo not drawn) [Compound 348]?
**A.** Plant response rating, Pigweed, Palmer [1, 11]: 0; Plant response rating, Pigweed, Palmer ([1]; 125 g ai/ha, 0 to 100 scale): 70; Plant response rating, Corn [3, 12]: 0; Plant response rating, Corn [3, 13]: 10; Plant response rating, Ragweed [4, 11]: 10; Plant response rating, Ragweed ([4]; 125 g ai/ha, 0 to 100 scale): 60; Plant response rating, Blackgrass [5, 12]: 30; Plant response rating, Blackgrass [5, 13]: 70; Plant response rating, Ragweed [6, 12]: 0; Plant response rating, Ragweed [6, 13]: 10; Plant response rating, Wheat [7, 12]: 0; Plant response rating, Wheat [7, 13]: 30; Plant response rating, Goosegrass [8, 11]: 0; Plant response rating, Goosegrass ([8]; 125 g ai/ha, 0 to 100 scale): 30; Plant response rating, Oat, Wild [9, 11]: 0; Plant response rating, Oat, Wild ([9]; 125 g ai/ha, 0 to 100 scale): 20; Plant response rating, Goosegrass [10, 12]: 30; Plant response rating, Goosegrass [10, 13]: 90

Source: patent US20230278972A1, “SUBSTITUTED HALOALKYL SULFONANILIDE HERBICIDES” (FMC Corporation, priority 2020, published 2023)
